Assay results taken from patent EP0751930B1 (G.D. SEARLE & CO., priority 1994, dated 1995).

Columns and labels:
[1] = molecular target: T1, Recombinant human inducible nitric oxide synthase (hiNOS) (Homo sapiens, UniProt P35228); test: Citrulline Assay for Nitric Oxide Synthase (hiNOS); assay type: biochemical; settings: for IC50: conversion of [3H]-arginine to [3H]-citrulline, 30 µM L-arginine, 37°C, 15 minutes
T1 construct: made in house; host or cells: Sf9 insect cells (recombinant baculovirus)
Protocol: (§1) Nitric oxide synthase activity was measured by monitoring the conversion of [^3H]-arginine to [^3H]-citrulline. Mouse inducible nitric oxide synthase (miNOS) was prepared from an extract of LPS-treated RAW 264.7 cells and partially purified by DEAE-Sepharose chromatography. Rat brain constitutive nitric oxide synthase (rnNOS) was prepared from an extract of rat cerebellum and partially purified by DEAE-Sepharose chromatography. Enzyme and inhibitors were incubated at 37°C for 15 minutes in a reaction volume of 100 µL with the following components added to start the reaction: 50 mM Tris (pH 7.6), 1 mg/ml bovine serum albumin, 1 mM DTT, 2 mM CaCl2, 10 µM FAD, 10 µM tetrahydrobiopterin, 30 µM L-arginine containing L-[2,3-^3H]-arginine at 300 cpm/pmole and 1 mM NADPH. For constitutive NOS, 50 nM calmodulin was also added. The reaction was terminated by addition of cold stop buffer containing 10 mM EGTA, 100 mM HEPES, pH 5.5 and 1 mM citrulline. [^3H]-Citrulline was separated by chromatography on Dowex 50W X-8 cation exchange resin and radioactivity determined with a liquid scintillation counter.
Recombinant human inducible nitric oxide synthase (hiNOS) was extracted from Sf9 insect cells (infected with recombinant baculoviruses encoding a cDNA for human inducible nitric oxide synthase which has been isolated and purified from a lambda Zapll cDNA library made from RNA isolated from a colon sample from a patient with ulcerative colitis) and partially purified by DEAE-chromatography.

[2] = molecular target: T2, Mouse inducible nitric oxide synthase (miNOS) (Mus musculus, UniProt P29477); test: Citrulline Assay for Nitric Oxide Synthase (miNOS); assay type: biochemical; settings: for IC50: conversion of [3H]-arginine to [3H]-citrulline, 30 µM L-arginine, 37°C, 15 minutes
T2 construct: prepared from an extract of LPS-treated RAW 264.7 cells and partially purified by DEAE-Sepharose chromatography; endogenous in cells; host or cells: LPS-treated RAW 264.7 cells
Protocol: as §1

[3] = molecular target: T3, Rat brain constitutive nitric oxide synthase (rnNOS) (Rattus norvegicus, UniProt P29476); test: Citrulline Assay for Nitric Oxide Synthase (rnNOS); assay type: biochemical; settings: for IC50: conversion of [3H]-arginine to [3H]-citrulline, 30 µM L-arginine, 50 nM calmodulin added
T3 construct: prepared from an extract of rat cerebellum and partially purified by DEAE-Sepharose chromatography; from tissue; host or cells: rat cerebellum
Protocol: as §1

[4] = system: RAW 264.7 cells; test: Raw Cell Nitrite Assay; assay type: cell-based; settings: Mus musculus, RAW264.7; for IC50: nitrite production by intracellular iNOs, LPS-induced RAW 264.7 cells, L-arginine 30 µM
Protocol: RAW 264.7 cells are plated to confluency on a 96-well tissue culture plate grown overnight (17h) in the presence of LPS to induce NOS. A row of 3-6 wells were left untreated and served as controls for subtraction of nonspecific background. The media was removed from each well and the cells are washed twice with Krebs-Ringers-Hepes (25mM, pH 7.4) with 2 mg/ml glucose. The cells are then placed on ice and incubated with 50 µL of buffer containing L-arginine (30 µM) +/- inhibitors for lh. The assay is initiated by warming the plate to 37°C in a water bath for lh. Production of nitrite by intracellular iNOs is linear with time. To terminate the cellular assay, the plate of cells is placed on ice and the nitrite-containing buffer removed and analyzed for nitrite using a previously published fluorescent determination for nitrite. All values are the average of triplicate wells and are compared to a background-subtracted induced set of cells (100% value).

T3 sequence (P29476 whole entry): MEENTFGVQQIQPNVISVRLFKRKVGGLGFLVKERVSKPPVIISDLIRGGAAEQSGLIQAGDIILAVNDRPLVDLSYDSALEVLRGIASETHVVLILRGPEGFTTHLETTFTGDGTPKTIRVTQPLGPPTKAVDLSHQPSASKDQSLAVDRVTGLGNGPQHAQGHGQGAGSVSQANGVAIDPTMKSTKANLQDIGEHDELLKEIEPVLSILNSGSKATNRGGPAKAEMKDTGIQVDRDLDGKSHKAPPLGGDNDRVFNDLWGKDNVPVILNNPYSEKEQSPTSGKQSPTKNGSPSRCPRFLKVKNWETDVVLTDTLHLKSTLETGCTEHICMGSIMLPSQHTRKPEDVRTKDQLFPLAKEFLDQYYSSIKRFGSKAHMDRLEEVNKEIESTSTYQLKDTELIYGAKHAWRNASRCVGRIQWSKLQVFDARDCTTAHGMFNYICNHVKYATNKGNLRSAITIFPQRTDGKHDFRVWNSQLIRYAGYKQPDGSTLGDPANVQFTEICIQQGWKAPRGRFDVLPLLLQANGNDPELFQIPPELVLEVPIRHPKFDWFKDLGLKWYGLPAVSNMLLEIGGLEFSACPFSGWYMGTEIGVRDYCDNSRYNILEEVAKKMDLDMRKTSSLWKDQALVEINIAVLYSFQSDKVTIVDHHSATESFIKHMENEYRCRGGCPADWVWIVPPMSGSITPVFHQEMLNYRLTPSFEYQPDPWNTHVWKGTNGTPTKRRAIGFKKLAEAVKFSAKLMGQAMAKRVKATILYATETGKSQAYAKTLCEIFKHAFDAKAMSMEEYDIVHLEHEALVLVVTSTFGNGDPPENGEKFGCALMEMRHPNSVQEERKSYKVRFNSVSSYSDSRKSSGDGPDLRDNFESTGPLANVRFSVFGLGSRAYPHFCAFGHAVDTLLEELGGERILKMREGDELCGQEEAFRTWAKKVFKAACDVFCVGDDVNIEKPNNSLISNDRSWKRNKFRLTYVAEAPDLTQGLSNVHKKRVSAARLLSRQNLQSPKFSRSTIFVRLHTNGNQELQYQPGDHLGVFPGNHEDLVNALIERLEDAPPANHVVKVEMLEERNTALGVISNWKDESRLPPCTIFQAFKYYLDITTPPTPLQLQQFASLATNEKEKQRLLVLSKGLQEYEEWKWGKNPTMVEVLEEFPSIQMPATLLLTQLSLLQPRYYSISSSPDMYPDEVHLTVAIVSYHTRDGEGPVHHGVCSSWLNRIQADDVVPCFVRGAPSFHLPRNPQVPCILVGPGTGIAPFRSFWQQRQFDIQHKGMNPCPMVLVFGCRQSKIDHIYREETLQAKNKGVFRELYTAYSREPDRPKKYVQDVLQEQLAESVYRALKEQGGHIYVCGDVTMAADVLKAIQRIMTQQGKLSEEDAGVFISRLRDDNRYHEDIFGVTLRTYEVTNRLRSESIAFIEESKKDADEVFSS
T2 sequence (P29477 whole entry): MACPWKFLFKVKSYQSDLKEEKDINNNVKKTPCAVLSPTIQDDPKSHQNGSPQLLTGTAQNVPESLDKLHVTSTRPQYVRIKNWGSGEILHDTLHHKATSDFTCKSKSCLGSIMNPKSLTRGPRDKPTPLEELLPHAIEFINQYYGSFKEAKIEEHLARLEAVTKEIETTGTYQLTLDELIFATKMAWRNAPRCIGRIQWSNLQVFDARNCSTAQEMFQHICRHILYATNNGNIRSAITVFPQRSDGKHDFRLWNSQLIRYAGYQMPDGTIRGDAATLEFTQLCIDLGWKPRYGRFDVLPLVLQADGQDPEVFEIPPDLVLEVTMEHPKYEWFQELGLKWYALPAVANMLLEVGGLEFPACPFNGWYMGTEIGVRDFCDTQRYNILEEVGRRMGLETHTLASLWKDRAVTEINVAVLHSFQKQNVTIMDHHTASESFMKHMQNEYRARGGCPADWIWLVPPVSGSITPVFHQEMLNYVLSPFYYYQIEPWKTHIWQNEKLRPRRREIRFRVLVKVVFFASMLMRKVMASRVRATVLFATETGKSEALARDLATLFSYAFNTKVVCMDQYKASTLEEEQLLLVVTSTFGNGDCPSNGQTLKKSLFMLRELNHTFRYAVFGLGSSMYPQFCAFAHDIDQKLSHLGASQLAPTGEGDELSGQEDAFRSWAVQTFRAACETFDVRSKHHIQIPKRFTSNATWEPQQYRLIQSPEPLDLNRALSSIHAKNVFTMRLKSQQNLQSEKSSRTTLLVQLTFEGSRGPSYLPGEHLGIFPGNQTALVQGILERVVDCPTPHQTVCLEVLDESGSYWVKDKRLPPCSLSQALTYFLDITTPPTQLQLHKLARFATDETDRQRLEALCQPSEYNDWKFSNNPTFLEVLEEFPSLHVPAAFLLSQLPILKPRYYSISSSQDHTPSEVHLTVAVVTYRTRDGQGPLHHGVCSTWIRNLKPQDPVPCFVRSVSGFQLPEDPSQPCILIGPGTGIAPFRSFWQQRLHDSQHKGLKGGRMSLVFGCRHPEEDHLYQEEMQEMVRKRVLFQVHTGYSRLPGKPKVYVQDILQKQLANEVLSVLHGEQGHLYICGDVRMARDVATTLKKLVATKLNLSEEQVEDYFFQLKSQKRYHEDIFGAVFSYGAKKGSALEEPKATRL

Compound: CC(=N)NCCCCC(N)(CO)C(=O)O (racemic) [Example 4]
- inhibition at 10 µM ([1]; @ 10 µM, read-out: hiNos Inh.): 39%
- inhibition at 10 µM ([2]; @ 10 µM, read-out: miNOS Inh.): 39%
- inhibition at 10 µM ([3]; @ 10 µM, read-out: rnNOS Inh.): 8.6%
- inhibition at 10 µM ([4]; @ 10 µM, read-out: Raw Cell Inh.): 8.6%

Compound: CC(=N)NCCCC(C)(N)C(=O)O (stereo not shown) [Example 1]
- IC50 [1]: 73.5 µM
- IC50 [2]: 34.9 µM
- IC50 [3]: 356 µM
- IC50 [4]: 25 µM

Compound: CC(=N)NCCCCC(C)(N)C(=O)O (racemic) [Example 2]
- IC50 [1]: 26.6 µM
- IC50 [2]: 7.2 µM
- IC50 [3]: 193 µM
- IC50 [4]: 52.5 µM

Compound: CC(=N)NCC[Se]CC(N)C(=O)O (racemic) [Example 3, Nε-iminoethyl-aminoethylselenocysteine]
- IC50 [1]: 35.5 µM
- IC50 [2]: 5 µM
- IC50 [3]: 229 µM
- IC50 [4]: 0.37 µM
